For the assay, the system named is Adult Sprague Dawley rats lavaged until their endogenous lung surfactant is washed out. Briefly: Arterial oxygen partial pressure (PaO2) in lung-lavaged, ventilated rats (animal model of ARDS) after intratracheal instillation. It is filed as in vivo, rat (Sprague Dawley). The note with it: for PaO2, average value (± standard deviation): Compound A 600 μg/kg alone. An excerpt: Adult Sprague Dawley rats are artificially ventilated with pure oxygen and a positive end-expiratory pressure (PEEP; in order to guarantee oxygenation of the rats) and lavaged until their endogenous lung surfactant is washed out (D. Häfner, U. Kilian and R. Beume: Comparison of four lung surfactant preparations in an animal model of adult respiratory distress syndrome (ARDS). Am. Rev. Respir. Dis. 1993, 147:A719; D. Häfner, P. -G. Germann, D. Hauschke, Pulmonary Pharmacology (1994) 7, 319–332). This is manifested by the fact that in the animals the preliminary values of the arterial oxygen partial pressure (PaO2) of 500–550 mm Hg (in the case of pure oxygen ventilation and PEEP) decrease to values of 50–110 mm Hg. Animals of the control group, which are not treated with lung surfactant, remain with their PaO2 at these low values throughout the observation period. Sixty minutes after the PaO2 has decreased to these values, lung surfactant or lung surfactant together with N-(3,5-dichloropyrid-4-yl)-3-cyclopropylmethoxy-4-difluoromethoxybenzamide is instilled intratracheally. The blood gases are determined 30 and 120 minutes after instillation.
In Table 1 and Table 2 which follow, in line A the average values (±standard deviation) of the PaO2 are indicated in mm Hg for the time 30 minutes (constant PEEP of 8 cm H2O) after intratracheal instillation and in line B 120 minutes after intratracheal instillation. […] This follows by comparison with the untreated control animals. […] It is therefore possible to save a part of the very expensive lung surfactant, or else to obtain an increased action of each individual component.

Results on one compound are retold here after patent publication US6998410B2, “Compositions” (Altana Pharma AG, priority 1997, dated 2006).

SMILES strings stand for the structures.

Regarding `O=C(Nc1c(Cl)cncc1Cl)c1ccc(OC(F)F)c(OCC2CC2)c1` [Compound A, N-(3,5-dichloropyrid-4-yl)-3-cyclopropylmethoxy-4-difluoromethoxybenzamide], the “PaO2, average value (± standard deviation)” value is 59 ± 12 mm Hg (line A: 30 minutes after intratracheal instillation (constant PEEP of 8 cm H2O)) and 75 ± 24 mm Hg (line B: 120 minutes after intratracheal instillation). For the same compound, the “Influence on the PaO2 (in words)” value (sole administration, by comparison with the untreated control animals) was “no influence on the PaO2”.
